This note sets out measurements from ChEMBL document CHEMBL5036339, “Synthesis and biological evaluation of indole-based peptidomimetics as antibacterial agents against Gram-positive bacteria” (Eur J Med Chem, 2021).

What is called MIC is the lowest concentration found to suppress growth. One may read the HC50 as the concentration that lyses half of the red blood cells.

≈ marks a conversion by molar mass, not a printed value. Calls of active or inactive are those of the source. The rule behind the calls is not given here.

For one data set, the system named is Escherichia coli. In words: Antibacterial activity against Escherichia coli ATCC25922 assessed as reduction in bacterial growth. It counts as functional.
The subject of data set [1] is Staphylococcus aureus. The experiment in a line: Antibacterial activity against Staphylococcus aureus ATCC29213 assessed as reduction in bacterial growth. It counts as functional.
Data set [2] deals with Staphylococcus aureus. In words: Antibacterial activity against methicillin-resistant Staphylococcus aureus NCTC 10442 assessed as reduction in bacterial growth. It counts as functional.
The nature of data set [3]: Hemolytic activity in rabbit erythrocytes assessed as concentration required to cause 50% hemolysis. It counts as ADME, cell-based, Oryctolagus cuniculus, Erythrocyte.
Data set [4] relates to Staphylococcus aureus. The experiment in a line: Antibacterial activity against methicillin-resistant Staphylococcus aureus N315 assessed as reduction in bacterial growth. It counts as functional.
In data set [5] the test system is Staphylococcus aureus. The experiment in a line: Induction of drug resistance in Staphylococcus aureus ATCC29213 assessed as reduction in bacterial growth at 0.5 times MIC measured after 24 hr. It is filed as functional, organism-based.
For data set [6], the system named is Staphylococcus aureus. In words: In vivo antibacterial activity against Staphylococcus aureus ATCC29213 in mouse bacterial keratitis model assessed as log reduction in bacterial load in infected cornea at 5%,TOP after 24 hour infection. It counts as functional, organism-based.
In data set [7] the test system is Staphylococcus aureus. In words: Bactericidal activity against Staphylococcus aureus NCTC 10442 assessed as log reduction in bacterial growth at 4X MIC measured within 0.5 hr by time-kill kinetic assay. It counts as functional. The note with it: time hrs <=0.5.

Consider `COC(=O)[C@H](CCCNC(=N)N)NC(=O)[C@H](CCCNC(=N)N)NC(=O)[C@H](CCCNC(=N)N)NC(=O)Cc1cn(C/C=C(\C)CCC=C(C)C)c2ccccc12`, for which the MIC in the data set with Escherichia coli was determined as 50 µg/mL (≈ 63 µM); with Staphylococcus aureus [1] it was 3.12 µg/mL (≈ 3.94 µM); with Staphylococcus aureus [2] it was 1.56 µg/mL (≈ 1.96 µM); with Staphylococcus aureus [4], 1.56 µg/mL (≈ 1.96 µM). Moreover, in data set [3], the HC50 was > 200 µg/mL.
For `COC(=O)[C@H](CCCNC(=N)N)NC(=O)[C@H](CCCNC(=N)N)NC(=O)Cc1cn(C/C=C(\C)CCC=C(C)C)c2ccccc12`, the MIC in the data set with Escherichia coli worked out at 50 µg/mL (≈ 78.4 µM); in the data set with Staphylococcus aureus [1] it was 3.12 µg/mL (≈ 4.9 µM); with Staphylococcus aureus [2] it was 1.56 µg/mL (≈ 2.45 µM); in the data set on Staphylococcus aureus [4], 3.12 µg/mL (≈ 4.9 µM). In data set [3], the HC50 is > 200 µg/mL.
As for `CC(C)=CCC/C(C)=C/Cn1cc(CC(=O)N[C@@H](CCCNC(=N)N)C(=O)N[C@@H](CCCNC(=N)N)C(N)=O)c2ccccc21`, the MIC turned out to be 50 µg/mL (≈ 80.3 µM) with Escherichia coli, 3.12 µg/mL (≈ 5.02 µM) in the data set with Staphylococcus aureus [1], 3.12 µg/mL (≈ 5.02 µM) with Staphylococcus aureus [2] and 3.12 µg/mL (≈ 5.02 µM) with Staphylococcus aureus [4]. Besides, the HC50 in data set [3] is > 200 µg/mL.
Consider `C=CCCCCCn1cc(CC(=O)NCCN(CCN)CCN)c2ccccc21`, for which the MIC in the data set on Escherichia coli is > 50 µg/mL; in the data set with Staphylococcus aureus [1], 12.5 µg/mL (≈ 31.3 µM); with Staphylococcus aureus [2], 25 µg/mL (≈ 62.6 µM); in the data set with Staphylococcus aureus [4], 12.5 µg/mL (≈ 31.3 µM). Further, the HC50 in data set [3] amounted to 140 µg/mL.
With `COC(=O)[C@H](Cc1c[nH]cn1)NC(=O)Cc1cn(C/C=C(\C)CCC=C(C)C)c2ccccc12`, the MIC in the data set on Escherichia coli is > 100 µg/mL; with Staphylococcus aureus [1], > 50 µg/mL; with Staphylococcus aureus [2], > 50 µg/mL; in the data set with Staphylococcus aureus [4], > 50 µg/mL. In addition, the HC50 in data set [3] was > 200 µg/mL.
`COC(=O)[C@H](CCCNC(=N)N)NC(=O)Cc1cn(CC=C(C)C)c2ccccc12`: the MIC with Escherichia coli was > 100 µg/mL; with Staphylococcus aureus [1], 50 µg/mL (≈ 121 µM); in the data set on Staphylococcus aureus [2], 50 µg/mL (≈ 121 µM); in the data set on Staphylococcus aureus [4], 50 µg/mL (≈ 121 µM). Besides, the HC50 in data set [3] was > 200 µg/mL.
In the case of `CCOC(=O)Cc1cn(C/C=C(\C)CCC=C(C)C)c2ccccc12`, the MIC was > 100 µg/mL in the data set with Escherichia coli, > 50 µg/mL in the data set with Staphylococcus aureus [1], > 50 µg/mL in the data set with Staphylococcus aureus [2] and > 50 µg/mL in the data set on Staphylococcus aureus [4]. In data set [3], the HC50 was > 200 µg/mL.
In the case of `CC(C)=CCC/C(C)=C/Cn1cc(CC(=O)NCCCNC(=N)N)c2ccccc21`, the MIC in the data set with Escherichia coli was determined as 12.5 µg/mL (≈ 30.5 µM); in the data set on Staphylococcus aureus [1], 1.56 µg/mL (≈ 3.81 µM); in the data set with Staphylococcus aureus [2], 1.56 µg/mL (≈ 3.81 µM); with Staphylococcus aureus [4], 1.56 µg/mL (≈ 3.81 µM). For the same compound, the HC50 in data set [3] was determined as 733 µg/mL.
Consider `CC(C)=CCC/C(C)=C/Cn1cc(CC(=O)NCCCN)c2ccccc21`, for which the MIC with Escherichia coli was 12.5 µg/mL (≈ 34 µM); in the data set with Staphylococcus aureus [1] it was 12.5 µg/mL (≈ 34 µM); with Staphylococcus aureus [2] it was 12.5 µg/mL (≈ 34 µM); in the data set with Staphylococcus aureus [4], 6.25 µg/mL (≈ 17 µM). Further, in data set [3], the HC50 came out at 178 µg/mL.
For the compound `CCCCN(CCCC)CCCNC(=O)Cc1cn(C/C=C(\C)CCC=C(C)C)c2ccccc12`, the MIC with Escherichia coli was > 100 µg/mL; in the data set with Staphylococcus aureus [1], 3.12 µg/mL (≈ 6.51 µM); in the data set with Staphylococcus aureus [2] it was 3.12 µg/mL (≈ 6.51 µM); in the data set with Staphylococcus aureus [4], 3.12 µg/mL (≈ 6.51 µM). Moreover, in data set [3], the HC50 turned out to be 72.3 µg/mL.
Regarding `CCOC(=O)Cc1c[nH]c2ccccc12`, the MIC with Escherichia coli was > 100 µg/mL; with Staphylococcus aureus [1], > 50 µg/mL; in the data set with Staphylococcus aureus [2], > 50 µg/mL; in the data set on Staphylococcus aureus [4], > 50 µg/mL. Also, the HC50 in data set [3] is > 200 µg/mL.
As to `CC(C)=CCC/C(C)=C/Cn1cc(CC(=O)NCCN(CCN)CCN)c2ccccc21`, the MIC stood at 25 µg/mL (≈ 56.9 µM) in the data set on Escherichia coli, 1.56 µg/mL (≈ 3.55 µM) in the data set on Staphylococcus aureus [1], 1.56 µg/mL (≈ 3.55 µM) with Staphylococcus aureus [2] and 1.56 µg/mL (≈ 3.55 µM) in the data set on Staphylococcus aureus [4]. The concentration for 50% haemolysis (HC50) in data set [3] was 208 µg/mL.
Take `CC(C)=CCC/C(C)=C/Cn1cc(CC(=O)NCCCN(C)C)c2ccccc21`: the MIC in the data set on Escherichia coli worked out at 12.5 µg/mL (≈ 31.6 µM); in the data set on Staphylococcus aureus [1] it was 6.25 µg/mL (≈ 15.8 µM); with Staphylococcus aureus [2], 6.25 µg/mL (≈ 15.8 µM); in the data set with Staphylococcus aureus [4] it was 3.12 µg/mL (≈ 7.9 µM). Besides, the HC50 in data set [3] turned out to be 55.1 µg/mL.
In the case of `CCCCCCCCCCn1cc(CC(=O)NCCN(CCN)CCN)c2ccccc21`, the MIC was determined as 12.5 µg/mL (≈ 28.2 µM) in the data set with Escherichia coli, 1.56 µg/mL (≈ 3.52 µM) in the data set with Staphylococcus aureus [1], 1.56 µg/mL (≈ 3.52 µM) in the data set on Staphylococcus aureus [2] and 1.56 µg/mL (≈ 3.52 µM) in the data set with Staphylococcus aureus [4]. For the same compound, the HC50 in data set [3] came to 95.9 µg/mL.
For `CCn1cc(C(=O)O)c(=O)c2cc(F)c(N3CCNCC3)cc21`, in the data set on Staphylococcus aureus [5], the outcome was Active.
On to `CC(C)=CCn1cc(CC(=O)NCCCNC(=N)N)c2ccccc21`, for which the MIC is > 100 µg/mL in the data set on Escherichia coli, 50 µg/mL (≈ 146 µM) in the data set on Staphylococcus aureus [1], 50 µg/mL (≈ 146 µM) in the data set on Staphylococcus aureus [2] and 50 µg/mL (≈ 146 µM) with Staphylococcus aureus [4]. The HC50 in data set [3] was > 200 µg/mL.
Regarding `CN[C@H](CC(C)C)C(=O)N[C@H]1C(=O)N[C@@H](CC(N)=O)C(=O)N[C@H]2C(=O)N[C@H]3C(=O)N[C@H](C(=O)N[C@H](C(=O)O)c4cc(O)cc(O)c4-c4cc3ccc4O)[C@H](O)c3ccc(c(Cl)c3)Oc3cc2cc(c3O[C@@H]2O[C@H](CO)[C@@H](O)[C@H](O)[C@H]2O[C@H]2C[C@](C)(N)[C@H](O)[C@H](C)O2)Oc2ccc(cc2Cl)[C@H]1O` [VANCOMYCIN], the MIC with Staphylococcus aureus [1] is 0.78 µg/mL (≈ 0.538 µM); in the data set on Staphylococcus aureus [2], 1.56 µg/mL (≈ 1.08 µM); with Staphylococcus aureus [4] it was 1.56 µg/mL (≈ 1.08 µM). Further, the outcome in the data set with Staphylococcus aureus [6] was Active. Moreover, in the data set with Staphylococcus aureus [7], the log reduction turned out to be 0.5 log10 CFU/mL.
For `CC(C)=CCn1cc(CC(=O)N[C@@H](CCCNC(=N)N)C(N)=O)c2ccccc21`, the MIC with Escherichia coli is > 100 µg/mL; in the data set on Staphylococcus aureus [1] it was > 50 µg/mL; with Staphylococcus aureus [2], > 50 µg/mL; in the data set with Staphylococcus aureus [4], > 50 µg/mL. The HC50 in data set [3] was > 200 µg/mL.
`CC(C)=CCC/C(C)=C/Cn1cc(CC(=O)N[C@@H](CCCNC(=N)N)C(N)=O)c2ccccc21`: the MIC in the data set with Escherichia coli was 25 µg/mL (≈ 53.6 µM); in the data set on Staphylococcus aureus [1], 3.12 µg/mL (≈ 6.7 µM); in the data set on Staphylococcus aureus [2], 3.12 µg/mL (≈ 6.7 µM); in the data set with Staphylococcus aureus [4] it was 3.12 µg/mL (≈ 6.7 µM). Moreover, the HC50 in data set [3] amounted to 119 µg/mL.
As to `COC(=O)[C@H](CCCNC(=N)N)NC(=O)Cc1cn(C/C=C(\C)CCC=C(C)C)c2ccccc12`, the MIC stood at 12.5 µg/mL (≈ 26 µM) in the data set with Escherichia coli, 3.12 µg/mL (≈ 6.49 µM) in the data set with Staphylococcus aureus [1], 3.12 µg/mL (≈ 6.49 µM) in the data set on Staphylococcus aureus [2] and 3.12 µg/mL (≈ 6.49 µM) with Staphylococcus aureus [4]. Moreover, in data set [3], the HC50 was 58.8 µg/mL.
On to `NC[C@H]1O[C@H](O[C@H]2[C@H](O)[C@@H](O[C@H]3O[C@H](CO)[C@@H](O)[C@H](N)[C@H]3O)[C@H](N)C[C@@H]2N)[C@H](O)[C@@H](O)[C@@H]1O` [KANAMYCIN], for which the MIC with Escherichia coli came to 6.25 µg/mL (≈ 12.9 µM).
Take `CC(C)=CCn1cc(CC(=O)NCCCN)c2ccccc21`: the MIC in the data set on Escherichia coli is > 100 µg/mL; in the data set on Staphylococcus aureus [1], > 50 µg/mL; in the data set with Staphylococcus aureus [2] it was > 50 µg/mL; with Staphylococcus aureus [4] it was > 50 µg/mL. The HC50 in data set [3] is > 200 µg/mL.
Take `CC(C)=CCC/C(C)=C/Cn1cc(CC(=O)NCCCN2CCCC2)c2ccccc21`: the minimal inhibitory concentration (MIC) in the data set with Escherichia coli was found to be 50 µg/mL (≈ 119 µM); in the data set on Staphylococcus aureus [1], 6.25 µg/mL (≈ 14.8 µM); with Staphylococcus aureus [2], 6.25 µg/mL (≈ 14.8 µM); in the data set with Staphylococcus aureus [4], 6.25 µg/mL (≈ 14.8 µM). Also, the HC50 in data set [3] amounted to 47.6 µg/mL.
